Laboratory results reported in BindingDB's records for doi:10.1016/j.ejmech.2013.04.056 (Jamia Hamdard (Hamdard University), 2013).

Target: T1, Prostaglandin G/H synthase 1 (Ovis aries, UniProt P05979)
T1 sequence (P05979 whole entry): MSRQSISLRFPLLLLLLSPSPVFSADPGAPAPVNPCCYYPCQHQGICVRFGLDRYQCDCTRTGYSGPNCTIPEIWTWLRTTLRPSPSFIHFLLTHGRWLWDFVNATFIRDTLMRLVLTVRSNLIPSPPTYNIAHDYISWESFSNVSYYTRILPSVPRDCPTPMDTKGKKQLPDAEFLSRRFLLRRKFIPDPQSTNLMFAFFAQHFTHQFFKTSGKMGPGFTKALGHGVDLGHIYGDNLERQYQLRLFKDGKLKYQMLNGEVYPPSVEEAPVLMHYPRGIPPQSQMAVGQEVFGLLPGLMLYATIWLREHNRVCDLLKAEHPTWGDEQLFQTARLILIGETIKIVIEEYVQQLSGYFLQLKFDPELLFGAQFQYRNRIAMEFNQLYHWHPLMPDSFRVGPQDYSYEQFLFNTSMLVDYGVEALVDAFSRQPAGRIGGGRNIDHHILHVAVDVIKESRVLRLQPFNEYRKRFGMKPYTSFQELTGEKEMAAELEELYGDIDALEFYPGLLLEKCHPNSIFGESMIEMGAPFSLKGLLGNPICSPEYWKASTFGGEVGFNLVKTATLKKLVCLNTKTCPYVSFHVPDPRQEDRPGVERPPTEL
Assay: Inhibition of ovine COX1

IC50: 87.5 µM
SMILES: COc1cc(/C=C/C(=O)c2c(O)cc(C)c(Cl)c2C)cc(OC)c1OC
